The text below walks through data of patent publication US20250221950A1, “GABA-CONTAINING COMPOSITION” (priority 2021, published 2025).

“Also recorded” adds a separate entry of the source. Ends that are not written are not given here.

Data set [1] relates to Healthy C57BL/6J male mice. Description: Food intake after sucrose with or without GABA (Example 10, FIG. 14). The format is in vivo. How it is done: Thereafter, the mice were fed at 10:00 on the test day, and the food intake by free-feeding was measured over time.
Data set [2] concerns GLP-1. Description: GLP-1 secretion after glucose with or without GABA, portal plasma ELISA (Example 7, FIG. 10). The format is in vivo, mice. The settings on record: addition of GABA (2, 20, 200 mg/kg) to glucose 1 g/kg oral, 15 minutes.
The next data set relates to vagal afferent nerves. Description: pERK1/2 immunostaining of nodose ganglion, nucleus tractus solitarius and area postrema (Example 4, FIG. 4, 5). It is filed as in vivo, mice. Particulars: 30 minutes. How it is done: C57BL/6J male mice were acclimated to the environment and experimental work by preliminary rearing and handling for 1 week or more in individual cages. […] They were post-fixed, and a frozen section specimen was prepared. Using this frozen section specimen, immunostaining of phosphorylated ERK1/2 (pERK1/2), which is a neural activation marker, was performed, and each organ section was photographed with a fluorescence microscope and analyzed.

In a further data set the test system is sham-operated mice. Description: Food intake after intragastric GABA in sham-operated mice (FIG. 1B). It is filed as in vivo. Particulars: GABA 200 mg/kg intragastric. How it is done:
(§1) In order to examine the involvement of the vagus nerve which is a visceral sensory nerve, the food intake reducing effect by intragastric administration of GABA was examined using sensory nerve disorder model mice by subcutaneous administration of capsaicin or subdiaphragmatic vagotomized mice. The sensory nerve disorder model mice by subcutaneous administration of capsaicin were prepared as follows. 50 mg/kg of capsaicin (5 ml/kg, solution composition: 10% ethanol, 10% Tween 80, 80% physiological saline) was subcutaneously administered to C57BL/6J male mice under tribromoethanol (200 mg/kg, intraperitoneal administration (ip)) anesthesia, and after 2 days, 50 mg/kg of capsaicin was subcutaneously administered under similar anesthesia. Further, after 2 days, 10 mg/kg of capsaicin was intraperitoneally administered under no anesthesia. After a recovery period of 5 to 7 days, an experiment of food intake was performed. In sham operation and subdiaphragmatic vagotomy, surgery was performed on C57BL/6J male mice under tribromoethanol (200 mg/kg, ip) anesthesia. […] All the mice were fasted overnight (16 hours) on the day before the experiment of food intake, then intragastrically administered a single dose of physiological saline or GABA (200 mg/kg) from 9:45, and fed at 10:00, and the food intake by free-feeding was measured over time. […]

Data set [3] deals with Healthy C57BL/6J male mice. Description: Food intake after intragastric GABA just before feeding in fasted healthy mice (Example 1, FIG. 1A). The format is in vivo. Particulars: GABA solution 20 mg/kg or 200 mg/kg po just before feeding, compared with physiological saline. How it is done:
As experimental animals, C57BL/6J male mice were used. The mice were acclimated to the environment by preliminary rearing for 1 week or more in individual cages in the free-eating and drinking environment at a temperature of 23±2° C., a humidity of 55±10%, a 12 hour light-dark cycle (light period: 7:30 to 19:30). The animal experiment was conducted with approval in accordance with the guidelines of the Committee for Animal Research of Kyoto Prefectural University. […] In each administration, the mice were intragastrically administered (po) a single dose of physiological saline as a control group and GABA (2 mg/kg, 20 mg/kg, 200 mg/kg) as a test group at a dose of 10 ml/kg using a sonde (stainless steel feeding needle). […] The amount of the feed taken is expressed as the cumulative food intake (kcal) or the food intake at each time (kcal) (FIG. 1A). The cumulative food intake (kcal) also includes energy of administered GABA (3.95 kcal/g).

The subject of data set [4] is GIP. Description: Isomerized sugar-induced GIP secretion, portal plasma ELISA (Example 9, FIG. 13). The settings on record: GABA 60 mg/kg po with glucose+fructose 1 g/kg each. Background: An ELISA detects its analyte on a solid surface through an enzyme-linked reagent.
Data set [5] has as its system sensory nerve disorder model mice by subcutaneous administration of capsaicin. Description: Food intake after intragastric GABA in capsaicin sensory nerve disorder model mice (FIG. 1B). Particulars: GABA 200 mg/kg intragastric, capsaicin treatment. It is filed as in vivo. Here is the method:
as §1

Another data set concerns human subjects. Description: Human test: VAS satiety and appetite, and calorie intake of a lunch box after GABA intake (Example 6). The format is in vivo. Particulars: GABA 100 mg before lunch box, versus placebo. Here is the method:
It was examined whether GABA administration also affects the food intake in humans. In 13 human subjects (25 to 43 years old, 5 males and 8 females), changes in the food intake in the presence or absence of GABA administration were confirmed in the following test outline. Specifically, each subject was fasted from 21:00 on the day before the test, and subjective evaluation (satiety, hunger, appetite) was performed by the VAS questionnaire at 12:00 on the test day. Thereafter, a sample (placebo group: dextrin, GABA group: GABA 100 mg) was taken in together with 50 mL of water, and immediately after that, diet (lunch box) was taken. Immediately after diet, at 30 minutes, 60 minutes, and 120 minutes after diet, subjective evaluation (satiety, hunger, appetite) was performed again by the VAS questionnaire, and the remaining amount of a lunch box was photographed to calculate intake kcal.

The subject of data set [6] is GIP. Description: Glucose-induced GIP secretion, portal plasma ELISA (Example 7, FIG. 10). Particulars: GABA (2, 20, 200 mg/kg) with glucose 1 g/kg oral, 15 minutes. It is filed as in vivo, mice.
The test system of data set [7] is Healthy C57BL/6J male mice. Description: Food intake after GABA, enteral nutrient or both 30 minutes before feeding, healthy mice (Example 2, FIG. 2). The format is in vivo. Here is the method: Saline (40 ml/kg, po), GABA (200 mg/kg, po), EnsureH (40 ml/kg, po, 1.5 kcal/g) which is an enteral nutrient manufactured by Abbott Japan LLC, or EnsureH+GABA (GABA 200 mg/kg in Ensure, 40 ml/kg, po) were administered from 9:15. The mice were fed 30 minutes after administration, and freely fed. […] At 0.5 h or after, the cumulative food intake (kcal) of the forcibly administered solution and the feed taken was shown (FIG. 2).

Data set [8] has as its system GLP-1. Description: Blood total GLP-1 concentration 30 minutes after intragastric administration (Example 5, FIG. 6). The format is in vivo, mice. How it is done:
(§2) Healthy C57BL/6J male mice were fasted for 16 hours from 18:00 the day before the experiment. At 10:00, various solutions shown in the figure were intragastrically administered (40 ml/kg). Thirty minutes after administration, blood was collected from the portal vein under isoflurane anesthesia. An anticoagulant (heparin (final concentration 50 IU/ml)) and a peptide degradation inhibitor (aprotinin (final concentration 500 KIU/ml) and vildagliptin (final concentration 10 μM)) were added in advance to the sampling syringe. The collected blood was cooled and centrifuged and stored at −80° C. until the obtained plasma was analyzed. The total GIP concentration (A) and the total GLP-1 concentration (B) in the blood were analyzed using ELISA kits (EZGLP1T-36K and EZRMGIP-55K) manufactured by Millipore Corporation.

The test system of data set [9] is subdiaphragmatic vagotomized mice. Description: Food intake after intragastric GABA in subdiaphragmatic vagotomized mice (FIG. 1B). It is filed as in vivo. Particulars: GABA 200 mg/kg intragastric, afferent vagotomy. How it is done: as §1
Data set [10] deals with GLP-1. Description: Fructose-induced GLP-1 secretion, portal plasma ELISA (Example 9, FIG. 13). The format is in vivo, mice.
Data set [11] deals with GIP. Description: Blood total GIP concentration 30 minutes after intragastric administration (Example 5, FIG. 6). It is filed as in vivo, mice. Here is the method:
as §2

In data set [12] the test system is Healthy C57BL/6J male mice. Description: Food intake after glucose, fructose, isomerized sugar with or without GABA (Example 8, FIG. 11, 12). The settings on record: fructose 1 g/kg po alone, compared with control group (saline). The format is in vivo. How it is done:
Thereafter, the mice were fed at 10:00 on the test day, and the food intake by free-feeding was measured over time. […] The effect of GABA on the inhibitory action on fructose-induced satiety by glucose was examined. […] Thereafter, the mice were fed at 10:00 on the test day, and the food intake by free-feeding was measured over time.

A further data set concerns C57BL/6J male mice. Description: Conditioned taste aversion test (saccharin preference, Example 3, FIG. 3). Particulars: lithium chloride 3 mmol/kg intraperitoneal. The format is in vivo. How it is done:
C57BL/6J male mice reared in individual cages were given two bottles of water only for 2 hours from 10:00 to 12:00 for 5 days, whereby the mice were acclimated to the water restriction schedule. On day 6, a 0.15% saccharin solution was presented for 30 minutes, and thereafter, lithium chloride (3 mmol/kg) was intraperitoneally administered, whereby the mice were made to acquire an aversion to the taste of the saccharin solution (conditioning). In the same manner, a control group to which physiological saline (10 mL/kg) was intragastrically administered and a test group to which GABA (200 mg/kg) was intragastrically administered were prepared. On day 7 serving as a rest day, the above-described water restriction schedule was performed. On day 8 serving as a test day, two bottles of a 0.15% saccharin solution and water were simultaneously presented for 30 minutes, and the preference of the saccharin solution (saccharin intake/total intake of two bottles×100, %) was determined.

Data set [13] concerns afferent nerves in the hepatic branch of the vagus nerve. Particulars: administration into the hepatic portal vein; J Auton Nerv Syst. 1996; cited from earlier work.
The test system of another data set is obese patients. Particulars: Bergmann et al. 2019, cited from earlier work.
The mark [14] stands for this setting: GABA addition to enteral nutrients, 30 minutes after administration.
[15] abbreviates: GABA alone, intragastric 40 ml/kg, 30 minutes after administration.
The mark [16] stands for this setting: addition of GABA to the liquid food (EnsureH), 30 minutes.

On to `NCCCC(=O)O` [GABA, γ-Aminobutyric acid], for which the feeling of satiety result in data set [1] (GABA 200 mg/kg po taken together with sucrose 2 g/kg po) is “significantly induces”. The GLP-1 secretion entry in the data set with GLP-1 [2] is reported as “does not significantly enhance”; in the data set on GLP-1 [10] (further addition of GABA 60 mg/kg po to glucose+fructose 1 g/kg each), “enhanced”. Also, the “afferent vagal activation by nutrient (pERK1/2)” value with vagal afferent nerves (GABA 200 mg/kg in EnsureH 40 ml/kg po, compared with EnsureH alone) is listed as “significantly enhances”. Moreover, in the data set with vagal afferent nerves (GABA alone 200 mg/kg po, compared with physiological saline), the “afferent vagal activity (neuron activities of vagal afferent nerves, nucleus tractus solitarius, area postrema; pERK1/2)” value is on record as “does not affect”. Further, the “ability to induce the transient satiety or to suppress binge eating on a fasting condition (food intake)” value in the data set with sham-operated mice is “similarly observed”; in data set [5], “impaired”; in data set [9] it was “impaired”. Also, the “fasting food intake within 1 hour from the start of diet after fasting” value in [3] (16 h fasted) is “significantly reduced”. The “food intake within 2 hours from the start of diet after fasting” value in data set [3] (16 h fasted) is reported as “reduces”. The “food intake after 2 hours from the start of eating” value in data set [3] is “not always changed”. Besides, the “isomerized sugar-induced GIP secretion” value in the data set with GIP [4] was “suppresses”. The “feeling of satiety (VAS)” value in the data set with human subjects (immediately after diet, 30 minutes and 60 minutes after diet) is “significantly increased”. Further, the “appetite after diet (VAS)” value in the data set with human subjects is “significantly reduced; also recorded: suppressed”. In addition, in the data set with human subjects, the calorie intake result is on record as “significantly low value”. Further, the “feeling of satiety, area under the curve (AUC)” value in the data set with human subjects is recorded as “significant increase; also recorded: significantly increased”. For the same compound, in the data set with GIP [6], the “glucose-induced GIP secretion” value was “suppresses”. In addition, the “eating behavior after the start of eating” value in data set [7] (GABA 200 mg/kg po alone 30 minutes before eating, compared with physiological saline) is given as “not different”. For the same compound, in data set [7] (GABA addition to enteral nutrients, 30 minutes before feeding), the “satiety via vagal afferent nerves” value is reported as “enhances”. Moreover, the “food intake reducing effect” value in data set [7] (administration of GABA 30 minutes before diet) is reported as “greatly reduced”. The “GLP-1 secretion (blood GLP-1 increase by nutrient)” value in the data set on GLP-1 [8] (setting [14]) is given as “increase; also recorded: promotes”. Further, in the data set on GLP-1 [8] (setting [15]), the “blood GLP-1 concentration” value is listed as “no change”. The “GLP-1 concentration relative to liquid food alone” value with GLP-1 [8] (setting [16]) is “approximately double”. In addition, in the data set with GLP-1 [10] (GABA 60 mg/kg po), the “fructose-induced GLP-1 secretion” value was “further enhances”. The “GIP secretion (blood GIP increase by nutrient)” value in the data set with GIP [11] (setting [14]) is “suppress; also recorded: suppresses”. In addition, in the data set with GIP [11] (setting [15]), the “blood GIP concentration” value was “no change”. For the same compound, the “GIP concentration relative to liquid food alone” value with GIP [11] (setting [16]) is reported as “about ⅓”.

`O=C(CO)[C@@H](O)[C@H](O)[C@H](O)CO` [fructose, reference compound]: the food intake entry in [12] is “suppressed”. Besides, the GLP-1 secretion entry in the data set on GLP-1 [10] (fructose 1 g/kg po) was “enhances”.

For the compound `[Cl-].[Li+]` [lithium chloride], the aversion result with C57BL/6J male mice was “induces aversion”. Further, in the data set on C57BL/6J male mice (conditioning day 6, test day 8), the preference of saccharin result is “reduced”.

For `OC[C@H]1O[C@@](CO)(O[C@H]2O[C@H](CO)[C@@H](O)[C@H](O)[C@H]2O)[C@@H](O)[C@@H]1O` [sucrose, reference compound], in data set [1] (sucrose 2 g/kg po alone), the “satiety inducing action (intake inhibitory action)” value is “not observed”.

Consider “Glucose-dependent insulinotropic polypeptide [GIP]”, for which the “neural activity of afferent nerves in the hepatic branch of the vagus nerve” value in [13] is “does not result in any change”. In addition, the “effect of GLP-1 on energy intake” value in the data set with obese patients (GIP administered simultaneously with GLP-1) is “attenuated”.

As for “glucagon-like peptide-1 (HAEGTFTSDVSSYLEGQAAKEFIAWLVKGR; ends and bridges not checked; UniProt P01275 98-127, looked up) [GLP-1, incretin hormone produced in endocrine L cells]”, in data set [13], the “neural activity of afferent nerves in the hepatic branch of the vagus nerve” value is reported as “significant increase”. The energy intake result in the data set with obese patients (GLP-1 intravenously to obese patients) is listed as “reduced”.
